The test system of data set [1] is MCP-1 expression by LPS-stimulated MonoMac6 cells. Kind of data set: Analysis of the gene expression of MCP-1 in a human monocyte line (real-time RT-PCR). In kind it is cell-based. To be noted: 1 h pre-incubation, LPS 100 ng/ml 4 h. The protocol: The capacity of the compounds to inhibit the expression of MCP-1 by lipopolysaccharide (LPS)-stimulated MonoMac6 cells was evaluated. The cells were placed in 96-well plates at a concentration of 50 000 cells/well. The compounds were tested at the maximum soluble concentration given in Table 1 (in the range 30-300 μM) and incubated for 1 hour. The cells were then stimulated with LPS (100 ng/ml) for 4 hours.
(§1) The total RNA was extracted from the cell pellet using the RNeasy mini kit (Qiagen), reverse-transcribed with the TaqMan Reverse transcription reagents synthesis kit (Applied Biosystems) and the cDNA obtained was used for the real-time PCR reaction. The amplification was obtained in 96-well plates using the ABI Prism 7000 sequence detection system (Applied Biosystems), by applying the following temperature profile: 50° C. for 2 minutes, 95° C. for 10 minutes and 45 cycles at 95° C. for 15 seconds and 60° C. for 1 minute. For the amplification, a set of primers and probe specific for human MCP-1 was used (Applied Biosystems, RefSeq NM_002982.3). A set of primers and probe for β-actin was used in separate wells as an internal control of the samples for the purposes of normalization. Once the reaction had taken place, the fluorescence data were analysed using the ABI Prism 7000 SDS software, by calculating the threshold cycle (Ct) for each sample and subsequently performing a relative quantification via the ΔΔCt method.

Data set [2] concerns MCP-1 protein production by LPS-stimulated MonoMac6 cells. Briefly: Measurement of the production of MCP-1 in a human monocyte line (ELISA). In kind it is cell-based. The note with it: 1 h pre-incubation, LPS 100 ng/ml 20 h, MonoMac6 supernatant; for inhibition at 150 µM: MONO-MAC-6, compound 150 μM (maximum soluble concentration); for inhibition at 300 µM: MONO-MAC-6, compound 300 μM (maximum soluble concentration); for inhibition at 30 µM: MONO-MAC-6, compound 30 μM (maximum soluble concentration). The method, then:
The capacity of the compounds to inhibit the expression of the protein MCP-1 by lipopolysaccharide (LPS)-stimulated MonoMac6 cells was evaluated. The cells were placed in 96-well plates at a concentration of 50 000 cells/well. The compounds were tested at the maximum soluble concentration given in Table 2 (in the range 30-300 μM) and incubated for 1 hour. The cells were then stimulated with LPS (100 ng/ml) for 20 hours.
The amount of MCP-1 produced was measured in the supernatants, suitably diluted with buffer, by means of an immunoenzymatic test (ELISA) using a commercial kit (ELISA MCP-1/JE, R&D Systems).
In general terms: ELISA stands for enzyme-linked immunosorbent assay.

Data set [3] concerns p40 expression by LPS-stimulated MonoMac6 cells. Briefly: Analysis of the gene expression of p40 in a human monocyte line (real-time RT-PCR). In kind it is cell-based. To be noted: 1 h pre-incubation, LPS 100 ng/ml 4 h, read-out: % inhibition of p40 expression (mRNA); for inhibition at 300 µM: MONO-MAC-6, compound 300 μM (maximum soluble concentration). The protocol: The capacity of the compounds to inhibit the expression of p40 by lipopolysaccharide (LPS)-stimulated MonoMac6 cells was evaluated. The cells were placed in 96-well plates at a concentration of 50 000 cells/well. The compounds were tested at the maximum soluble concentration given in Table 4 (in the range 30-300 μM) and incubated for 1 hour. The cells were then stimulated with LPS (100 ng/ml) for 4 hours.
as §1, with “For the amplification, a set of primers and probe specific for human MCP-1 was used (Applied Biosystems, RefSeq NM_002982.3).” left out
Background: In qPCR the cycle at which signal appears reflects the starting amount.

The test system of data set [4] is CX3CR1 expression by LPS-stimulated MonoMac6 cells. Briefly: Analysis of the gene expression of CX3CR1 in a human monocyte line (real-time RT-PCR). To be noted: 1 h pre-incubation, LPS 100 ng/ml 20 h, read-out: % inhibition of CX3CR1 expression (mRNA); for inhibition at 150 µM: MONO-MAC-6, compound 150 μM (maximum soluble concentration); for inhibition at 300 µM: MONO-MAC-6, compound 300 μM (maximum soluble concentration). It counts as cell-based. The protocol: The capacity of the compounds to inhibit the expression of CX3CR1 by lipopolysaccharide (LPS)-stimulated MonoMac6 cells was evaluated. The cells were placed in 96-well plates at a concentration of 50 000 cells/well. […] The cells were then stimulated with LPS (100 ng/ml) for 20 hours.
as §1, with “For the amplification, a set of primers and probe specific for human MCP-1 was used (Applied Biosystems, RefSeq NM_002982.3).” left out

Setting [5] is: compound 150 μM (maximum soluble concentration).
Where [6] appears, read: compound 300 μM (maximum soluble concentration).
Where [7] appears, read: MONO-MAC-6, compound 30 μM (maximum soluble concentration).

Usually inhibition stands for the share of the control response that was lost under treatment. As for `CC(C)(OCc1nn(Cc2ccc(Cl)cc2)c2ccccc12)C(=O)O` [Compound 4, 2-{[1-(4-chlorobenzyl)-1H-indazol-3-yl]methoxy}-2-methylpropanoic acid], in data set [1] (setting [5]), the “% inhibition of MCP-1 expression (mRNA)” value amounted to 26%. Further, the inhibition at 150 µM in data set [2] worked out at 54%; in data set [3] (MONO-MAC-6, compound 150 μM (maximum soluble concentration)) it was 48%; in data set [4], 87%.
In general, melting point refers to the temperature of the solid-liquid transition. As for `COc1ccc(Cn2nc(COC(C)(C)C(=O)O)c3ccccc32)cc1` [Compound 1, 2-{[1-(4-methoxybenzyl)-1H-indazol-3-yl]methoxy}-2-methylpropanoic acid], the melting point was in the range of 169 to 171 °C. Further, the “% inhibition of MCP-1 expression (mRNA)” value in data set [1] (setting [6]) is 57%. Further, in data set [2], the inhibition at 300 µM came out at 80%. Moreover, in data set [3], the inhibition at 300 µM was 50%. Further, in data set [4], the inhibition at 300 µM is 97%.
As to `CC(C)(OCc1nn(C(=O)c2ccccc2)c2ccccc12)C(=O)O` [Compound 3, 2-[(1-benzoyl-1H-indazol-3-yl)methoxy]-2-methylpropanoic acid], the “% inhibition of MCP-1 expression (mRNA)” value in data set [1] (setting [6]) was found to be 65%. In addition, the results for the inhibition at 300 µM in data set [2], in data set [3] and in data set [4] were 83%, 64% and 99%, respectively.
In the case of `CC(C)(OCc1nn(Cc2ccccc2)c2ccc([N+](=O)[O-])cc12)C(=O)O` [Compound 6, 2-[(1-benzyl-5-nitro-1H-indazol-3-yl)methoxy]-2-methylpropanoic acid], in data set [1] (setting [5]), the “% inhibition of MCP-1 expression (mRNA)” value is recorded as 95%. Also, the inhibition at 150 µM in data set [2] is 100%; in data set [4], 98%.
In turn, `Cc1ccc(Cn2nc(COC(C)(C)C(=O)O)c3ccccc32)cc1` [Compound 22, 2-{[1-(4-methylbenzyl)-1H-indazol-3-yl]methoxy}-2-methylpropanoic acid] returned an inhibition at 150 µM in data set [2] of 37%.
Consider `CC(C)(OCc1nn(Cc2ccc(Cl)c(Cl)c2)c2ccccc12)C(=O)O` [Compound 7, 2-{[1-(3,4-dichlorobenzyl)-1H-indazol-3-yl]methoxy}-2-methylpropanoic acid], for which the figures for the inhibition at 30 µM in data set [2], in data set [3] (setting [7]) and in data set [4] (setting [7]) were 29%, 47% and 85%, respectively.
In data set [2], `O=C(O)COCCOCc1nn(Cc2ccccc2)c2ccccc12` [Compound 19, {2-[(1-benzyl-1H-indazol-3-yl)methoxy]ethoxy}acetic acid] showed an inhibition at 300 µM of 63%.
`COc1ccc2c(c1)c(COC(C)(C)C(=O)O)nn2Cc1ccccc1` [Compound 2, 2-[(1-benzyl-5-methoxy-1H-indazol-3-yl)methoxy]-2-methylpropanoic acid] showed a melting point of 128 to 130 °C. The molecule also had an inhibition at 300 µM in data set [2] of 66%.
In data set [2], `CC(C)(OCc1nn(C2CCCc3ccccc32)c2ccccc12)C(=O)O` (centres unmarked) [Compound 8, 2-methyl-2-{[1-(1,2,3,4-tetrahydronaphth-1-yl)-1H-indazol-3-yl]methoxy}-propanoic acid] returned an inhibition at 150 µM of 77%.
The molecule `O=C(O)COCc1nn(Cc2ccc(Cl)cc2Cl)c2ccccc12` [Compound 18, {[1-(2,4-dichlorobenzyl)-1H-indazol-3-yl]methoxy}acetic acid] had an inhibition at 30 µM in data set [2] of 35%.
In the case of `CC(C)(OCCCOCc1nn(Cc2ccccc2)c2ccccc12)C(=O)O` [Compound 21, 2-{3-[(1-benzyl-1H-indazol-3-yl)methoxy]propoxy}-2-methylpropanoic acid], the “% inhibition of MCP-1 expression (mRNA)” value in data set [1] (setting [6]) stood at 61%. For the same molecule, the figures for the inhibition at 300 µM in data set [2], in data set [3] and in data set [4] were 88%, 50% and 97%, respectively.
Consider `CC(C)(OCc1nn(Cc2ccccc2)c2ccc(Cl)cc12)C(=O)O` [Compound 5, 2-[(1-benzyl-5-chloro-1H-indazol-3-yl)methoxy]-2-methylpropanoic acid], for which the melting point was in the range of 145 to 147 °C. The inhibition at 150 µM in data set [2] amounted to 82%.
For the molecule `CC(C)(OCCOCc1nn(Cc2ccccc2)c2ccccc12)C(=O)O` [Compound 20, 2-{2-[(1-benzyl-1H-indazol-3-yl)methoxy]ethoxy}-2-methylpropanoic acid], the melting point lay in the range of 94 to 95 °C. Moreover, the “% inhibition of MCP-1 expression (mRNA)” value in data set [1] (setting [6]) turned out to be 29%. Besides, the inhibition at 300 µM in data set [2] came out at 73%. Besides, the inhibition at 300 µM in data set [3] was determined as 58%. Also, the inhibition at 300 µM in data set [4] worked out at 89%.
As to `O=C(O)COCc1nn(Cc2ccc(F)cc2)c2ccccc12` [Compound 17, {[1-(4-fluorobenzyl)-1H-indazol-3-yl]methoxy}acetic acid], the “% inhibition of MCP-1 expression (mRNA)” value in data set [1] (setting [6]) is 26%. The figures for the inhibition at 300 µM in data set [2], in data set [3] and in data set [4] were 39%, 61% and 90%, respectively.
In turn, `CC(C)(OCc1nn(Cc2ccccc2)c2ccc(Br)cc12)C(=O)O` [Compound 23, 2-[(1-benzyl-5-bromo-1H-indazol-3-yl)methoxy]-2-methylpropanoic acid] came in with a melting point of 168 to 170 °C.

For the origin of these results see US8835481B2, “1-benzyl-3-hydroxymethylindazole derivatives and use thereof in the treatment of diseases based on the expression of MCP-1, CX3CR1 and P40” (Aziende Chimiche Riunite Angelini Francesco A.C.R.A.F. …, priority 2008, dated 2014).
